Assay results: ChEMBL document CHEMBL5335868, “Exploring Scaffold Hopping for Novel 2-(Quinolin-4-yloxy)acetamides with Enhanced Antimycobacterial Activity” (ACS Med Chem Lett, 2024)
Values after ≈ are worked out from the molar mass of the structure shown.

Experiments:
[1] = test system: Mycobacterium tuberculosis; experiment: Antibacterial activity against Mycobacterium tuberculosis H37Rv assessed as bacterial growth inhibition measured after 7 days by resazurin based assay; format: functional; conditions: 168 h, time 7 day
[2] = Chemical stability of compound at pH 7.4 assessed as compound remaining at 10 uM incubated for 24 hrs by HPLC-MS/MS analysis; format: physicochemical; conditions: buffer, read-out: Stability
[3] = Cytotoxicity against human HepG2 cells incubated for 72 hrs by NRU assay; format: toxicity, cell-based
[4] = Metabolic stability in rat liver microsomes assessed as half life at 1 mg/ml measured for 30 mins in presence of […] by HPLC-MS/MS analysis; format: ADME, Microsome
[5] = Chemical stability of compound at pH 9.1 assessed as compound remaining at 10 uM incubated for 24 hrs by HPLC-MS/MS analysis; format: physicochemical; conditions: buffer, read-out: Stability
[6] = Cytotoxicity against African green monkey Vero cells incubated for 72 hrs by NRU assay; format: toxicity, cell-based; conditions: chlorocebus sabaeus
[7] = Cytotoxicity against African green monkey Vero cells incubated for 72 hrs by MTT assay; format: toxicity, cell-based; conditions: chlorocebus sabaeus
[8] = Chemical stability of compound at pH 1.2 assessed as compound remaining at 10 uM incubated for 24 hrs by HPLC-MS/MS analysis; format: physicochemical; conditions: buffer, read-out: Stability
[9] = Solubility of compound at pH 1.2 at 1 mg incubated for 4 hrs by LC analysis; format: physicochemical
[10] = Permeability of compound at 10 uM measured after 5 hrs by PAMPA assay; format: ADME; conditions: read-out: permeability
[11] = Cytotoxicity against human HepG2 cells incubated for 72 hrs by MTT assay; format: toxicity, cell-based
[12] = Solubility of compound at pH 7.4 at 1 mg incubated for 4 hrs by LC analysis; format: physicochemical
[13] = test system: Mycobacterium tuberculosis; experiment: Antibacterial activity against H37Rv infected in mouse RAW264.7 cells assessed as reduction in bacterial load by measuring colony forming units per well at 2.5 uM measured after 5 days by plate counting method (reference value: 4.19 +/- 0.41 log10CFU); format: functional; conditions: time 5 day
[14] = test system: Mycobacterium tuberculosis; experiment: Antibacterial activity against H37Rv infected in mouse RAW264.7 cells assessed as reduction in bacterial load by measuring colony forming units per well at 2.5 uM measured for 5 days by plate counting method (Rvb ~ 1.25 log10CFU); format: functional; conditions: time 5 day

COc1ccc2nc(C(F)(F)F)cc(OCC(=O)Nc3ccc(N4CCC(c5ccccc5)CC4)cc3)c2c1
MIC [1]: 0.1 µM (≈ 0.0536 µg/mL)

NNC(=O)c1ccncc1 [ISONIAZID]
MIC [1]: 2.3 µM (≈ 0.315 µg/mL)

CCc1nc2ccc(Cl)cn2c1C(=O)NCc1ccc(N2CCC(c3ccc(OC(F)(F)F)cc3)CC2)cc1 [TELACEBEC]
MIC [1]: 0.009 µM (≈ 0.00501 µg/mL)

O=C(COc1cc(C(F)(F)F)nc2ccc(Cl)cc12)Nc1ccc(N2CCC(c3ccccc3)CC2)cc1
MIC [1]: 74 µM (≈ 40 µg/mL)

CCc1cc(OCC(=O)Nc2ccc(N3CCC(c4ccc(OC(F)(F)F)cc4)CC3)cc2)c2cc(Cl)ccc2n1
MIC [1]: 0.07 µM (≈ 0.0409 µg/mL)

COc1ccc2nc(C)cc(OCC(=O)Nc3ccc(N4CCCCC4)cc3)c2c1
MIC [1]: 0.09 µM (≈ 0.0365 µg/mL)

CCc1cc(OCC(=O)Nc2ccc(N3CCC(c4ccccc4)CC3)cc2)c2cc(OC)ccc2n1
MIC [1]: 0.08 µM (≈ 0.0396 µg/mL)

CCc1cc(OCC(=O)Nc2ccc(N3CCC(c4ccccc4)CC3)cc2)c2cc(Br)ccc2n1
MIC [1]: 0.07 µM (≈ 0.0381 µg/mL)

CCc1cc(OCC(=O)Nc2ccc(N3CCC(c4ccc(OC(F)(F)F)cc4)CC3)cc2)c2cc(Br)ccc2n1
MIC [1]: 7.9 µM (≈ 4.97 µg/mL)

Cc1cc(OCC(=O)Nc2ccc(N3CCC(c4ccc(OC(F)(F)F)cc4)CC3)cc2)c2cc(Cl)ccc2n1
MIC [1]: 0.14 µM (≈ 0.0798 µg/mL)

Cc1cc(OCC(=O)Nc2ccc(N3CCC(c4ccc(OC(F)(F)F)cc4)CC3)cc2)c2cc(Br)ccc2n1
MIC [1]: 0.06 µM (≈ 0.0369 µg/mL)

CCc1cc(OCC(=O)Nc2ccc(N3CCC(c4ccc(OC(F)(F)F)cc4)CC3)cc2)c2cc(OC)ccc2n1
MIC [1]: 2.1 µM (≈ 1.22 µg/mL)

COc1ccc2nc(C)cc(OCC(=O)Nc3ccc(N4CCC(c5ccccc5)CC4)cc3)c2c1
MIC [1]: 0.02 µM (≈ 0.00963 µg/mL) | remaining at 24 h, 10 µM [2]: 96.3% | CC50 at 72 h [3]: > 10 µM | half-life [4]: 7.1 min | remaining at 24 h, 10 µM [5]: 22.6% | CC50 at 72 h [6]: > 10 µM | CC50 at 72 h [7]: > 10 µM | remaining at 24 h, 10 µM [8]: 52.4% | solubility at 4 h [9]: 410 µM (≈ 197 µg/mL) | Papp at 5 h, 10 µM [10]: 0.001 ×10⁻⁶ cm/s | CC50 at 72 h [11]: > 10 µM | solubility at 4 h [12]: 2220 µM (≈ 1070 µg/mL)

COc1ccc2nc(C)cc(OCC(=O)Nc3ccc(N4CCC(c5ccc(OC(F)(F)F)cc5)CC4)cc3)c2c1
MIC [1]: 0.02 µM (≈ 0.0113 µg/mL) | remaining at 24 h, 10 µM [2]: 85.3% | CC50 at 72 h [3]: > 10 µM | half-life [4]: 21 min | remaining at 24 h, 10 µM [5]: 96.8% | CC50 at 72 h [6]: > 10 µM | CC50 at 72 h [7]: > 10 µM | remaining at 24 h, 10 µM [8]: 100% | solubility at 4 h [9]: 20 µM (≈ 11.3 µg/mL) | Papp at 5 h, 10 µM [10]: 0.16 ×10⁻⁶ cm/s | CC50 at 72 h [11]: > 10 µM | solubility at 4 h [12]: 2190 µM (≈ 1240 µg/mL)

O=C(COc1cc(C(F)(F)F)nc2ccc(Br)cc12)Nc1ccc(N2CCC(c3ccccc3)CC2)cc1
MIC [1]: 34.2 µM (≈ 20 µg/mL)

Cc1cc(OCC(=O)Nc2ccc(N3CCC(c4ccccc4)CC3)cc2)c2cc(Br)ccc2n1
MIC [1]: 0.02 µM (≈ 0.0106 µg/mL) | remaining at 24 h, 10 µM [2]: 93.9% | CC50 at 72 h [3]: > 10 µM | half-life [4]: 76.4 min | remaining at 24 h, 10 µM [5]: 100% | CC50 at 72 h [6]: > 10 µM | CC50 at 72 h [7]: > 10 µM | remaining at 24 h, 10 µM [8]: 100% | solubility at 4 h [9]: > 1880 µM | Papp at 5 h, 10 µM [10]: 0.35 ×10⁻⁶ cm/s | CC50 at 72 h [11]: > 10 µM | solubility at 4 h [12]: 2640 µM (≈ 1400 µg/mL)

Cc1cc(OCC(=O)Nc2ccc(N3CCC(c4ccccc4)CC3)cc2)c2cc(Cl)ccc2n1
MIC [1]: 0.02 µM (≈ 0.00972 µg/mL) | remaining at 24 h, 10 µM [2]: 100% | Activity [13]: 2.46 log10CFU | CC50 at 72 h [3]: > 10 µM | half-life [4]: 177 min | remaining at 24 h, 10 µM [5]: 99% | CC50 at 72 h [6]: > 10 µM | CC50 at 72 h [7]: > 10 µM | Activity [14]: 0.48 log10CFU | remaining at 24 h, 10 µM [8]: 90.6% | solubility at 4 h [9]: > 2060 µM | Papp at 5 h, 10 µM [10]: 0.49 ×10⁻⁶ cm/s | CC50 at 72 h [11]: > 10 µM | solubility at 4 h [12]: 4030 µM (≈ 1960 µg/mL)

CCc1cc(OCC(=O)Nc2ccc(N3CCC(c4ccccc4)CC3)cc2)c2cc(Cl)ccc2n1
MIC [1]: 0.04 µM (≈ 0.02 µg/mL)
